The source of these data is US10519177B2, “Heterocyclic compounds and uses thereof” (Plexxikon Inc., priority 2013, dated 2019).

This assay addresses BRD4-BD1 (44-164) (Homo sapiens (Human), UniProt O60885). The assay is described as follows: Alphascreen binding assay BRD4-BD1. Conditions: BRD4(1) H4; read-out: Biochemical activity (IC50 μM) BRD4(1) H4. The method, then: Binding of compounds of formula (I) with bromodomain 2, 3 4 was assessed using Alphascreen binding assay. The inhibition of the interaction between bromodomain and its acetylated target protein (Filippakopoulos P et al. 2012) was measured quantitatively using recombinant BRD proteins, an acetylated Histone 4 peptide and AlphaScreen™ technology. In absence of inhibition the BRD protein bound to AlphaScreen™ nickel chelate acceptor beads can interact with the acetylated Histone 4 peptide which is immobilized by the AlphaScreen™ Streptavidin coated beads. This interaction brings donor and acceptor beads in proximity. The close proximity allows the singlet oxygen produced by laser excitation of the donor beads to reach the acceptor beads and generate a luminescence signal.
Recombinant human bromodomains containing the N-terminal bromodomain (BRD2-BD1 (71-194), BRD3-BD1 (24-144) and BRD4-BD1 (44-164)) or dual bromodomains (BRD4-BD12 (1-477), BRD4-BD12 (1-472)) were prepared and purified as described in protein expression and purification session. The peptide is human Histone H41-21K5AcK8AcK12AcK16Ac-Biotin (Anaspec CA, USA).
Protocol for BRD2, BRD3 and BRD4 assay: All components are prepared in buffer composed of 50 mM HEPES pH 7.5, 100 mM NaCl, 0.01% bovine serum albumin (“BSA”), 0.01% Triton X-100, 2 mM dithiothreitol (“DTT”). 7 μL of Bromodomain protein and 7 μL of peptide are added to wells containing 1 μL of various concentrations of test compounds of formula (I) or DMSO vehicle in an Alphaplate (PerkinElmer GA, USA) and incubated for 1 hour at room temperature. 4 μL donor and acceptor bead mixture is then added with final concentrations of 7.5 μg/ml. 30 minutes after bead addition, Alpha signal is read on the Envision spectrometer (λEx 680 nm, λEm 520-620 nm). Final concentrations of bromodomain proteins and peptide are as shown below.
All data was normalized to the mean of 16 high and 16 low control wells on each plate. A four parameter curve fit of the following formula was then applied: Y=a+(b−a)/(1+(x/c)^d) Where ‘a’ is the minimum, ‘b’ is the maximum, ‘c’ is the pIC50 and ‘d’ is the Hill slope. Protein Expression and Purification
Recombinant human bromodomains containing the N-terminal bromodomain (BRD2-BD1 (71-194), BRD3-BD1 (24-144) and BRD4-BD1 (44-164)) or dual bromodomains (BRD4-BD12 (1-477), BRD4-BD12 (1-472)) were expressed in E. coli cells (in a modified pET vector) with an N-terminal six-His tag and purified using a combination of both IMAC (Ni-affinity) and size exclusion chromatography steps.
Recombinant BRD proteins were expressed using the E. coli strain BL21-CodonPlus (DE3) (Agilent Technologies CA, USA). Cells were grown in Terrific Broth (TB) media to an OD600 of 1.2 at 37° C. at which temperature was reduced to 25° C., protein was induced with 1.0 mM ispropyl-β-D-thiogalactopyranoside (“IPTG”) for 12-18 hours and harvested by centrifugation at 8000×g for 20 minutes. Cells were re-suspended in 0.1M K2PO4 pH 8.0, 250 mM NaCl, 10% Glycerol, 0.75% NP-40, 25 mM Imidazole, 5 mM beta-mercaptoethanol (“BME”) with 0.2 mg/ml Lysosyme, 2.0 mM phenylmethanesulfonyl fluoride (“PMSF”), 25 μg/ml DNAse I, incubated on ice for 30 minutes and lyzed with a cell disruptor (MicroFluidics MA, USA). The lysate was clarified by centrifugation at 20,000×g for 2 hours. The protein was captured with Ni-NTA resin (Life Technologies, USA). Contaminating proteins were washed off with 25 mM Tris-HCl pH 8.3, 250 mM NaCl, 12% Glycerol and 50 mM Imidazole. Following 3× wash steps, protein was eluted step wise using a 50 mM HEPES pH 7.5, 500 mM NaCl and 400 mM Imidazole. The protein was further purified using Gel Filtration column 26/600 Superdex 200 (GE Biosciences NJ, USA) in 50 mM HEPES pH 7.5, 250 mM NaCl. The protein was aliquoted and flash-frozen in liquid Nitrogen.
In general terms: Bead proximity is the source of the signal in Alpha formats.

As to `Cc1noc(C)c1-c1cnc2c(c1)c(CC1CCN(C(=O)C(F)(F)F)CC1)cn2C` [P-0106, 1-[4-[[5-(3,5-dimethylisoxazol-4-yl)-1-methyl-pyrrolo[2,3-b]pyridin-3-yl]methyl]-1-piperidyl]-2,2,2-trifluoro-ethanone], the IC50 was less than 1 µM. Turning to `Cc1noc(C)c1-c1cnc2c(-c3cnn(C)c3)cn(S(=O)(=O)c3ccccc3)c2c1` [P-0110, 4-[1-(benzenesulfonyl)-3-(1-methylpyrazol-4-yl)pyrrolo[3,2-b]pyridin-6-yl]-3,5-dimethyl-isoxazole], the IC50 is less than 1 µM. In the case of `CCCS(=O)(=O)n1cc(-c2cnn(C)c2)c2ncc(-c3c(C)noc3C)cc21` [P-0111, 3,5-dimethyl-4-[3-(1-methylpyrazol-4-yl)-1-propylsulfonyl-pyrrolo[3,2-b]pyridin-6-yl]isoxazole] it was less than 1 µM; in that of `Cc1noc(C)c1-c1cnc2c(-c3cnn(C)c3)cn(S(=O)(=O)C3CCCC3)c2c1` [P-0112, 4-[1-cyclopentyl-sulfonyl-3-(1-methyl-pyrazol-4-yl)pyrrolo[3,2-b]pyridin-6-yl]-3,5-dimethyl-isoxazole], less than 1 µM. In the case of `Cc1noc(C)c1-c1cnc2c(c1)c(CC1CCN(C(=O)c3ccccc3)CC1)cn2C` [P-0115, [4-[[5-(3,5-dimethylisoxazol-4-yl)-1-methyl-pyrrolo[2,3-b]pyridin-3-yl]methyl]-1-piperidyl]-phenyl-methanone] it was less than 1 µM; in that of `CCNC(=O)N1CCC(Cc2cn(C)c3ncc(-c4c(C)noc4C)cc23)CC1` [P-0117, 4-[[5-(3,5-dimethylisoxazol-4-yl)-1-methyl-pyrrolo[2,3-b]pyridin-3-yl]methyl]-N-ethyl-piperidine-1-carboxamide], less than 1 µM; in that of `CCC(c1cn(C)c2ncc(-c3c(C)noc3C)cc12)C1CCC(F)(F)CC1` (stereo not drawn) [P-0118, 4-[3-[1-(4,4-difluorocyclohexyl)propyl]-1-methyl-pyrrolo[2,3-b]pyridin-5-yl]-3,5-dimethyl-isoxazole], less than 1 µM.

For `CC(=O)N1CCC(Cc2cn(C)c3ncc(-c4c(C)noc4C)cc23)CC1` [P-0120, 1-[4-[[5-(3,5-dimethylisoxazol-4-yl)-1-methyl-pyrrolo[2,3-b]pyridin-3-yl]methyl]-1-piperidyl]ethanone], the IC50 was less than 1 µM. On to `Cc1noc(C)c1-c1cnc2c(-c3cnn(C)c3)cn(S(=O)(=O)c3ccccc3F)c2c1` [P-0121, 4-[1-(2-fluorophenyl)sulfonyl-3-(1-methyl-pyrazol-4-yl)pyrrolo[3,2-b]pyridin-6-yl]-3,5-dimethyl-isoxazole], for which the IC50 is less than 1 µM.

Consider `Cc1noc(C)c1-c1cnc2c(-c3cnn(C)c3)cn(S(=O)(=O)c3cccc(F)c3)c2c1` [P-0122, 4-[1-(3-fluorophenyl)sulfonyl-3-(1-methyl-pyrazol-4-yl)pyrrolo[3,2-b]pyridin-6-yl]-3,5-dimethyl-isoxazole], for which the half-inhibitory concentration (IC50) is less than 1 µM. As to `Cc1noc(C)c1-c1cnc2c(-c3cnn(C)c3)cn(S(=O)(=O)c3ccc(F)cc3)c2c1` [P-0123, 4-[1-(4-fluorophenyl)sulfonyl-3-(1-methyl-pyrazol-4-yl)pyrrolo[3,2-b]pyridin-6-yl]-3,5-dimethyl-isoxazole], the IC50 was less than 1 µM. In the case of `CCn1cc(-c2cn(S(=O)(=O)c3ccccc3)c3cc(-c4c(C)noc4C)cnc23)cn1` [P-0124, 4-[1-(benzenesulfonyl)-3-(1-ethylpyrazol-4-yl)pyrrolo[3,2-b]pyridin-6-yl]-3,5-dimethyl-isoxazole] it was less than 1 µM; in that of `CCn1cc(-c2cn(S(=O)(=O)c3ccccc3F)c3cc(-c4c(C)noc4C)cnc23)cn1` [P-0125, 4-[3-(1-ethylpyrazol-4-yl)-1-(2-fluorophenyl)sulfonyl-pyrrolo[3,2-b]pyridin-6-yl]-3,5-dimethyl-isoxazole], less than 1 µM. In the case of `C=CCn1cc(-c2cn(S(=O)(=O)c3ccccc3)c3cc(-c4c(C)noc4C)cnc23)cn1` [P-0126, 4-[3-(1-allylpyrazol-4-yl)-1-(benzenesulfonyl)pyrrolo[3,2-b]pyridin-6-yl]-3,5-dimethyl-isoxazole], the IC50 was less than 1 µM. As for `C=CCn1cc(-c2cn(S(=O)(=O)c3ccccc3F)c3cc(-c4c(C)noc4C)cnc23)cn1` [P-0127, 4-[3-(1-allylpyrazol-4-yl)-1-(2-fluorophenyl)sulfonyl-pyrrolo[3,2-b]pyridin-6-yl]-3,5-dimethyl-isoxazole], the IC50 was less than 1 µM. For `C=CCn1cc(-c2cn(S(=O)(=O)C3CCCC3)c3cc(-c4c(C)noc4C)cnc23)cn1` [P-0128, 4-[3-(1-allylpyrazol-4-yl)-1-cyclopentyl-sulfonyl-pyrrolo[3,2-b]pyridin-6-yl]-3,5-dimethyl-isoxazole] the value was less than 1 µM; for `C=CCn1cc(-c2cn(S(=O)(=O)CCC(F)(F)F)c3cc(-c4c(C)noc4C)cnc23)cn1` [P-0129, 4-[3-(1-allylpyrazol-4-yl)-1-(3,3,3-trifluoro-propylsulfonyl)pyrrolo[3,2-b]pyridin-6-yl]-3,5-dimethyl-isoxazole], less than 1 µM; for `Cc1noc(C)c1-c1cnc2c(-c3cnn(C(F)F)c3)cn(S(=O)(=O)c3ccccc3)c2c1` [P-0131, 4-[1-(benzenesulfonyl)-3-[1-(difluoromethyl)pyrazol-4-yl]pyrrolo[3,2-b]pyridin-6-yl]-3,5-dimethyl-isoxazole], less than 1 µM.

With `Cc1noc(C)c1-c1cnc2c(-c3cnn(C(F)F)c3)cn(S(=O)(=O)c3ccccc3F)c2c1` [P-0132, 4-[3-[1-(difluoromethyl)pyrazol-4-yl]-1-(2-fluorophenyl)sulfonyl-pyrrolo[3,2-b]pyridin-6-yl]-3,5-dimethyl-isoxazole], the IC50 was less than 1 µM. In the case of `Cc1noc(C)c1-c1cnc2c(-c3cnn(C(F)F)c3)cn(S(=O)(=O)C3CCCC3)c2c1` [P-0133, 4-[1-cyclopentylsulfonyl-3-[1-(difluoromethyl)pyrazol-4-yl]pyrrolo[3,2-b]pyridin-6-yl]-3,5-dimethyl-isoxazole], the IC50 was less than 1 µM. `Cc1noc(C)c1-c1cnc2c(-c3cnn(C(F)F)c3)cn(S(=O)(=O)C3CCC3)c2c1` [P-0134, 4-[1-cyclobutyl-sulfonyl-3-[1-(difluoro-methyl)pyrazol-4-yl]pyrrolo[3,2-b]pyridin-6-yl]-3,5-dimethyl-isoxazole]: the IC50 is less than 1 µM.

Turning to `CCCS(=O)(=O)n1cc(-c2cnn(C(F)F)c2)c2ncc(-c3c(C)noc3C)cc21` [P-0135, 4-[3-[1-(difluoro-methyl)pyrazol-4-yl]-1-propylsulfonyl-pyrrolo[3,2-b]pyridin-6-yl]-3,5-dimethyl-isoxazole], the half-maximal inhibitory concentration (IC50) is less than 1 µM. For `Cc1noc(C)c1-c1cnc2c(-c3cnn(C(F)F)c3)cn(S(=O)(=O)CCC(F)(F)F)c2c1` [P-0136, 4-[3-[1-(difluoro-methyl)pyrazol-4-yl]-1-(3,3,3-trifluoro-propylsulfonyl)pyrrolo[3,2-b]pyridin-6-yl]-3,5-dimethyl-isoxazole] the value was less than 1 µM; for `C=CCn1cc(-c2cn(S(=O)(=O)CCC)c3cc(-c4c(C)noc4C)cnc23)cn1` [P-0137, 4-[3-(1-allylpyrazol-4-yl)-1-propylsulfonyl-pyrrolo[3,2-b]pyridin-6-yl]-3,5-dimethyl-isoxazole], less than 1 µM.

As a reminder, the IC50 is the concentration that inhibits the measured activity by half.
